Results taken from patent publication US11285144B2, “Use of CDK8 inhibitors to treat diseases of inflammation and autoimmunity” (THE BROAD INSTITUTE, INC., priority 2016, dated 2022).
“Also recorded” adds a separate entry of the source.

Tests used:
responder CD4+ T cells = assay: Treg suppression of responder CD4+ T cell proliferation in vitro; format: cell-based, mouse; conditions: Tregs generated in the presence of CDK8 inhibitor
Description: FIG. 19—Suppressing T-cell proliferation in vitro. Treg cells are co-cultured at increasing dilutions with CFSE-labeled responder CD4+ T cells and their ability to suppress responder T cell proliferation upon anti-CD3/CD28 stimulation is assessed. Naive CD4+ T cells from Foxp3IRES-GFP mice were cultured under either optimal conditions for Treg differentiation (Treg Hi) or sub-optimal Treg differentiation conditions in the presence of BRD6989. The resulting GFP+ Treg cells were sorted by FACS. […] Assay was performed as described in eLife 2015; 4:e05920.
Imbalances between anti-inflammatory (FoxP3+ Treg) and pro-inflammatory (TH1 and TH17) CD4+ T cell lineages can lead to pathogenic inflammations in a number of diseases contexts. Therapeutic strategies that enhance FoxP3+ Treg differentiation and/or function are being pursued for treatment of immune and inflammatory disorders. Treatment of naïve CD4+ T cells in the presence of multiple structural classes of CDK8 inhibitors can enhance differentiation into FoxP3+Tregs (FIG. 16).

[1] = system: Cyclin C/CDK8 complexes in BMDCs; assay: Cytokine production by R848-stimulated BMDCs from CcncΔ/Δ or Ccncf/f mice; format: cell-based, mouse
Description: Next, to determine whether IL-10 potentiation by CDK8 inhibitors requires functional Cyclin C/CDK8 complexes, differentiation was performed of BMDCs from CcncΔ/Δ mice in which Cyclin C can be specifically disrupted in hematopoietic cells relative to Ccncf/f littermates, which lack the polyinosinic:polycytidylic acid (polyI:C)-responsive Mx1-Cre (Li et al., Nature Cell Biology 16; 1080, 2014) (FIG. 11a). […] The impaired response of BMDCs lacking Cyclin C to BRD6989 and dCA are consistent with a model in which CDK8 restrains IL-10 production during activation of wild type myeloid cells.

R848-stimulated BMDCs = assay: IL-10 mRNA levels in BMDCs following R848 stimulation; format: cell-based, mouse; conditions: pre-treatment, then R848 stimulation
Description: FIG. 5—Cellular activities of the IL-10 hit BRD6989. […] (d) Effect of BRD6989 on IL-10 production in human DCs stimulated with R848 (each point corresponds to mean±S.D.; n=3 biological replicates from 1 independent experiment using cells derived from 1 donor). (e) Chemical structure of the pan-SIK inhibitor HG-9-91-01. (f) Effect of pre-treating BMDCs with HG-9-91-01 (0.5 μM) or BRD6989 (5 μM) on IL-10 mRNA levels following stimulation with R848 (each point corresponds to mean±S.D.; n=4 biological replicates from 1 independent experiment; *, P<0.05; ***, P<0.001 using unpaired, two-tailed Student's t test). Data from all panels is representative of at least 2 independent experiments.
Based on its ability to selectively potentiate IL-10 production by a mechanism that appears temporally distinct from CREB activation, BRD6989 was prioritized for MOA studies.

Cyclin C/CDK8 = Cyclin C/CDK8 (Homo sapiens, UniProt P49336); assay: Binding to Cyclin C/CDK8 complex
Description: (§1) Given that the pyridine core of BRD6989 is a common kinase-binding motif (Xing et al., J Comput Aided Mol Des 28:13-23, 2014), its activity against 414 kinases was profiled using a series of binding and activity assays. […] Binding of BRD6989 to CDK8, and its paralog CDK19, was confirmed using an orthogonal kinase-profiling format.

[2] = system: Zymosan A-stimulated BMDCs; assay: Cytokine production by Zymosan A-stimulated BMDCs; format: cell-based, mouse
Description: Towards the goal of identifying new mechanisms of IL-10 regulation, 59,346 small molecules were screened for the ability to enhance IL-10 production by activated bone marrow-derived dendritic cells (BMDCs) using a high-throughput assay developed previously (Sundberg et al., PNAS 111:12468-12473, 2014). Compounds were derived from both commercial collections and structurally and skeletally diverse libraries prepared by diversity-oriented synthesis (DOS). More than 60 hit compounds were identified that reproducibly enhance IL-10 production in a concentration-dependent manner (Table 1). Three distinct chemotypes were prioritized for follow-up based on potency and an initial analysis of structure-activity relationship (SAR) with respect to core scaffold, stereochemistry and side chains (FIG. 2a).
(§2) The pyridinyl tetrahydroquinoline BRD6989 (10) emerged as a prioritized hit in the screen (FIG. 2a and Table 2). […] Thus, BRD6989 enhances IL-10 production in activated human and murine macrophages and dendritic cells by a mechanism that appears most pronounced following stimulation of toll-like receptors-7 (TLR7) and TLR8 by R848.

[3] = system: Zymosan A-stimulated BMDCs; assay: Viability of zymosan A-stimulated BMDCs; format: cell-based, mouse
Description: as §2

414 kinases = assay: Kinase profiling by binding and activity assays
Description: as §1

[4] = system: Cyclin B/CDK1, Cyclin A/CDK2, p35/CDK5, Cyclin H/CDK7, Cyclin T/CDK9; assay: Activity of other CDKs; format: biochemical; conditions: CDKs involved in cell cycle regulation
Description: (a) Binding of the indicated concentrations of BRD6989 to CDK8/Cyclin C complexes (each point corresponds to mean±S.D.; n=3 biological replicates from 1 independent experiment). (b-f) Effect of the indicated concentrations of BRD6989 on the activity of (b) Cyclin B/CDK1, (c) Cyclin A/CDK2, (d) p35/CDK5, (e) Cyclin H/CDK7, and (f) Cyclin T/CDK9 (each point corresponds to mean±S.D.; n=3 biological replicates from 1 independent experiment).
(§3) Together, these kinase profiling, binding assay, enzyme inhibition and cell-based data identify the Mediator-associated kinases CDK8, and to a lesser degree CDK19, as molecular targets of BRD6989.

[5] = molecular target: recombinant Cyclin C/CDK19 (Homo sapiens, UniProt Q9BWU1); assay: Kinase activity of recombinant Cyclin C/CDK19; format: biochemical; conditions: recombinant complex
Description: as §3

BMDMs = assay: TF-Seq pathway reporter assay in BMDMs; format: cell-based, mouse
Description: To identify CDK8-responsive signaling pathways, an integrative genomics approach termed transcription factor sequencing (TF-Seq) was applied, in which consensus transcription factor binding sites drive expression of 58 reporter constructs bearing unique sequence tags (O'Connell et al., Cell Syst 2:323-34, 2016).
Given that c-Jun's ability to activate transcription is tightly regulated by phosphorylation, it was determined whether CDK8 inhibition affects c-Jun phosphorylation in activated BMDCs.

Sequence of recombinant Cyclin C/CDK19 (Q9BWU1 whole entry, species assumed): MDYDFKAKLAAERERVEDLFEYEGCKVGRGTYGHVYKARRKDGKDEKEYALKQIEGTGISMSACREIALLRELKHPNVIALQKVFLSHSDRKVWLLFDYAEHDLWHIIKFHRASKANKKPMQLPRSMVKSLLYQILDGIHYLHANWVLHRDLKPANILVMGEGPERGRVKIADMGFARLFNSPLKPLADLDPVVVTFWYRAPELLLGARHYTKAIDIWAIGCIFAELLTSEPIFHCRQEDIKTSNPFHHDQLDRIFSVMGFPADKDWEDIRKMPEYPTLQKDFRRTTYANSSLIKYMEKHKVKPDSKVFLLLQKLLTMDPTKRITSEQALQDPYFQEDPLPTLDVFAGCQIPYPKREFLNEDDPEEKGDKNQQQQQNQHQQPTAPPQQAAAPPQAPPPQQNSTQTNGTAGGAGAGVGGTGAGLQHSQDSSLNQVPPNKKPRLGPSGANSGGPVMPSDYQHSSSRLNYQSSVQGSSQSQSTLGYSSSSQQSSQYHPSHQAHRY
Sequence of recombinant Cyclin C/CDK19 (P24863 whole entry partner, species assumed): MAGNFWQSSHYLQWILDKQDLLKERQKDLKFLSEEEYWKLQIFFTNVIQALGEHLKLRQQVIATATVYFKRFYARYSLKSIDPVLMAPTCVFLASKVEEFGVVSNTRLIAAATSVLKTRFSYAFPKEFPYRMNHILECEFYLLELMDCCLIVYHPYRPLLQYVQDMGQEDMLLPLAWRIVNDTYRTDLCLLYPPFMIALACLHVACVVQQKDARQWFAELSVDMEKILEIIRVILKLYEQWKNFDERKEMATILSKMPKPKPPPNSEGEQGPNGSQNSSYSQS
Sequence of Cyclin C/CDK8 (P49336 whole entry, species assumed): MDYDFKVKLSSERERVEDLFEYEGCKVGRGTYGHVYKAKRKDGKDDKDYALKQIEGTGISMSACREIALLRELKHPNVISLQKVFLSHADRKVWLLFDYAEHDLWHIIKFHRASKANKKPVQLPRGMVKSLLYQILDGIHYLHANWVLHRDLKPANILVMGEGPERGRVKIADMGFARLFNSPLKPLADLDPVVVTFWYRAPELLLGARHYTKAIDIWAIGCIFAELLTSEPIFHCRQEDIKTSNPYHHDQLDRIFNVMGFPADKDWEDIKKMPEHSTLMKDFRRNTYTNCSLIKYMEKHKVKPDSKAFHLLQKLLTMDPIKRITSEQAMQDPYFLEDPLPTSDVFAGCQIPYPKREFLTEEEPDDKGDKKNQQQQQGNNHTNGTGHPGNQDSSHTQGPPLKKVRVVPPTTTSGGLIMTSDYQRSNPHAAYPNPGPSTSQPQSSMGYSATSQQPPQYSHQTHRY
Sequence of Cyclin C/CDK8 (P24863 whole entry partner, species assumed): as the sequence (P24863 whole entry partner, species assumed) above

IC50 (Cyclin C/CDK8): ~200 nM | EC50 ([2]; Mus musculus, BMDC, pre-treatment 48 hr, Zymosan A 18 hr, read-out: IL-10 production EC50): ~1000 nM | kinase selectivity (414 kinases; kinase profiling): remarkable selectivity | IC50 [5]: > 30000 nM
SMILES: CC1CCc2nc(N)c(C#N)c(-c3cccnc3)c2C1 (stereo not shown) [BRD6989]
suppression of CD4+ T cell proliferation by inhibitor-induced Tregs (responder CD4+ T cells): suppressed the proliferation of co-cultured responder CD4+ T cells in vitro at each dilution | IL-10 upregulation in Ccncf/f BMDCs [1]: remained intact | IL-10 upregulation in CcncΔ/Δ BMDCs ([1]; Cyclin C deleted): failed to upregulate IL-10 | IL-6 production in CcncΔ/Δ BMDCs ([1]; saturating concentrations): no further reduction | IL-10 mRNA levels (R848-stimulated BMDCs): sustained increase beginning at 4 hours and extending to 24 hours | production of IL-12p40 ([2]; Zymosan A-induced): largely unchanged | production of TNFα ([2]; Zymosan A-induced): largely unchanged | release of IL-6 ([2]; Zymosan A-induced): suppressed | production of IL-1β ([2]; Zymosan A-stimulated / activated BMDCs): largely unchanged | IL-1β production ([2]; stimulation with R848 or Zymosan A): minimally elevates IL-1β production | cell viability [3]: only modestly reducing cell viability; also recorded: does not significantly reduce the viability | secondary targets in kinase profiling (414 kinases; both kinase profiling experiments): phosphatidylinositol-4,5-bisphosphate 3-kinases C2A (PI3KC2A) and PI3KCG as secondary targets | inhibition of several other CDKs [4]: not the activity of several CDKs involved in cell cycle regulation; also recorded: does not inhibit | STAT1:STAT2 reporter activity (BMDMs; 2 hours after stimulation of BMDMs): suppressed induction of STAT1:STAT2 activity | NF-κB activation (BMDMs; all stimuli tested): suppressed NF-κB activation to a varying degree
